Test results as given in US6861391B1, “Trifluoromethyl-substituted spirocyclic ketoenols” (Bayer Aktiengesellschaft, priority 1999, dated 2005).

What was measured:
Myzus persicae = assay: Critical concentration test/root-systemic action; type: in vivo; conditions: 1.25 ppm in soil; root-systemic, broad beans; populated after 7 days, evaluated after a further 8 days
Method: Critical concentration test/root-systemic action Test insect: Myzus persicae Solvent: 4 parts by weight of acetone Emulsifier: 1 part by weight of alkylaryl polyglycol ether To produce a suitable preparation of active compound, 1 part by weight of active compound is mixed with the stated amount of solvent, the stated amount of emulsifier is added and the concentrate is diluted with water to the desired concentration. The preparation of active compound is mixed intimately with the soil. The concentration of the active compound in the preparation is virtually immaterial, only the amount by weight of active compound per volume unit of soil, which is stated in ppm […], being decisive. The treated soil is filled into 250 ml pots and pregerminated broad beans are planted in these. Thus, the active compound can be taken up by the plant roots from the soil and then transported into the leaves. To assess the root-systemic effect, the plants are populated with the above-mentioned test animals after 7 days. After a further 8 days, evaluation is carried out by counting or estimating the number of dead animals. The root-systemic action of the active compound is derived from the number of animals killed. It is 100% if all test animals have been killed and 0% when the number of test insects that are still alive is the same as for the untreated control.

[1] = tested on: peach aphids (Myzus persicae); assay: Myzus test (cabbage leaf dip); type: in vivo; conditions: cabbage leaves dipped
Method: Myzus test Solvent: 7 parts by weight of dimethylformamide Emulsifier: 1 part by weight of alkylaryl polyglycol ether To produce a suitable preparation of active compound, 1 part by weight of active compound is mixed with the stated amounts of solvent and emulsifier, and the concentrate is diluted with emulsifier-containing water to the desired concentration. Cabbage leaves (Brassica oleracea) which are heavily infested by peach aphids (Myzus persicae) are treated by being dipped into the preparation of active compound of the desired concentration. After the desired period of time, the kill in % is determined. 100% means that all aphids have been killed; 0% means that none of the aphids have been killed.

[2] = tested on: larvae of the mustard beetle (Phaedon cochleariae); assay: Phaedon larvae test (cabbage leaf dip); type: in vivo; conditions: 100 ppm active compound, cabbage leaves dipped
Method: Phaedon larvae test Solvent: 7 parts by weight of dimethylformamide Emulsifier: 1 part by weight of alkylaryl polyglycol ether To produce a suitable preparation of active compound, 1 part by weight of active compound is mixed with the stated amounts of solvent and emulsifier, and the concentrate is diluted with emulsifier-containing water to the desired concentration. Cabbage leaves (Brassica oleracea) are treated by being dipped into the preparation of active compound of the desired concentration and are populated with larvae of the mustard beetle (Phaedon cochleariae) while the leaves are still moist. After the desired period of time, the kill in % is determined. 100% means that all beetle larvae have been killed; 0% means that none of the beetle larvae have been killed.

Meloidogyne incognita = assay: Meloidogyne test (gall formation on lettuce roots); type: in vivo; conditions: 20 ppm active compound, nematicidal action by gall formation on lettuce
Method: Meloidogyne test Solvent: 7 parts by weight of dimethylformamide Emulsifier. 1 part by weight of alkylaryl polyglycol ether To produce a suitable preparation of active compound, 1 part by weight of active compound is mixed with the stated amounts of solvent and emulsifier, and the concentrate is diluted with water to the desired concentration. Vessels are filled with sand, solution of active compound, Meloidogyne incognita egg/larvae suspension and lettuce seeds. The lettuce seeds germinate and the plants develop. On the roots, galls develop. After the desired period of time, the nematicidal action is determined in % by the formation of galls. 100% means that no galls have been found; 0% means that the number of galls on the treated plants corresponds to that of the untreated control.

| melting point | Structure (SMILES) | Kill rate in % after 6 d ([1]; 1000 ppm active compound) | also measured |
| --- | --- | --- | --- |
| – | Cc1cc(C)c(C2=C(O)C3(CCC(C(F)(F)F)CC3)NC2=O)c(C)c1 (stereo not shown) [Example I-1-a-1] | – | Kill rate in % at active compound concentrations in ppm (Myzus persicae): 1.25 ppm = 100% |
| 245 °C | Cc1ccc(C)c(C2=C(O)C3(CCC(C(F)(F)F)CC3)NC2=O)c1 (stereo not shown) [Example I-1-a-2] | – | – |
| 175 °C | Cc1cc(C)c(C2=C(O)C3(CCC(C(F)(F)F)CC3)NC2=O)cc1C (stereo not shown) [Example I-1-a-3] | 80% | – |
| > 250 °C | Cc1cc(Cl)c(C2=C(O)C3(CCC(C(F)(F)F)CC3)NC2=O)c(Cl)c1 (stereo not shown) [Example I-1-a-4] | – | – |
| > 250 °C | Cc1cc(C)c(C2=C(O)C3(CCC(C(F)(F)F)CC3)NC2=O)c(C)c1C (stereo not shown) [Example I-1-a-5] | – | Kill rate in % after 6 d ([1]; 100 ppm active compound): 100% |
| > 248 °C | Cc1cc(Cl)cc(C)c1C1=C(O)C2(CCC(C(F)(F)F)CC2)NC1=O (stereo not shown) [Example I-1-a-6] | – | – |
| 212 °C | Cc1ccc(Br)c(C2=C(O)C3(CCC(C(F)(F)F)CC3)NC2=O)c1 (stereo not shown) [Example I-1-a-7] | – | – |
| – | Cc1cc(C)c(C2=C(OC(=O)C(C)C)C3(CCC(C(F)(F)F)CC3)NC2=O)c(C)c1 (stereo not shown) [Example I-1-b-1] | 95% | Kill rate in % after 7 d [2]: 100% |
| – | CCOC(=O)OC1=C(c2c(C)cc(C)cc2C)C(=O)NC12CCC(C(F)(F)F)CC2 (stereo not shown) [Example I-1-c-1] | 100% | – |
| – | Cc1ccc(C)c(C2=C(O)C3(CCC(C(F)(F)F)CC3)OC2=O)c1 (stereo not shown) [Example I-2-a-1] | – | Kill rate in % after 7 d (Meloidogyne incognita): 90% |
| 212 to 214 °C | Cc1cc(C)c(C2=C(O)C3(CCC(C(F)(F)F)CC3)OC2=O)cc1C (stereo not shown) [Example I-2-a-2] | 100% | – |
| 159 to 161 °C | Cc1cc(C)c(C2=C(O)C3(CCC(C(F)(F)F)CC3)OC2=O)c(C)c1C (stereo not shown) [Example I-2-a-3] | – | – |
